Data taken from DBAASP.
Converted amounts (≈) assume the structure as drawn. Each block holds one compound with its values, some of them ahead of it.

Experiments:
Test in all cases: ≥ marks a high value that may be exact or a test limit, other limits are often not marked, values filed in µg/mL are converted to µM
[1] = test system: Enterobacter cloacae 218R
[2] = test system: Enterococcus faecalis ATCC 29212
[3] = test system: Enterococcus faecalis W61950
[4] = test system: Enterococcus faecalis f43559
[5] = test system: Enterococcus faecium mic80
[6] = test system: Enterococcus faecium t62764
[7] = test system: Escherichia coli ESBL 63103
[8] = test system: Escherichia coli ESBL 64771
[9] = test system: Klebsiella pneumoniae ESBL 61962
[10] = test system: Klebsiella pneumoniae ESBL 63575
[11] = test system: Pseudomonas aeruginosa 198
[12] = test system: Pseudomonas aeruginosa 213
Pseudomonas aeruginosa 9 = test system: Pseudomonas aeruginosa 9
[13] = test system: Pseudomonas aeruginosa H1027
[14] = test system: Pseudomonas aeruginosa H1030
[15] = test system: Pseudomonas aeruginosa LES400
[16] = test system: Pseudomonas aeruginosa PAO1 H103
[17] = test system: Staphylococcus aureus ATCC 25923
[18] = test system: Staphylococcus aureus C623
[19] = test system: Stenotrophomonas maltophilia ATCC 13637
[20] = test system: Candida albicans NCYC 1467
[21] = test system: Enterococcus faecalis NCTC 12697
[22] = test system: Escherichia coli NCTC 10418
[23] = test system: Klebsiella pneumoniae ATCC 43816
[24] = test system: Pseudomonas aeruginosa ATCC 27853
[25] = test system: Staphylococcus aureus NCTC 10788
[26] = test system: Staphylococcus aureus NCTC 12493
[27] = test system: Acinetobacter baumannii 7226/16
[28] = test system: Escherichia coli ESBL 521/17
Escherichia coli ML-35p = test system: Escherichia coli ML-35p
[29] = test system: Klebsiella pneumoniae ESBL 344/17
[30] = test system: Pseudomonas aeruginosa 522/17
[31] = test system: Staphylococcus aureus 1399/17
[32] = test system: Staphylococcus aureus ATCC 33591
[33] = test system: Staphylococcus aureus SG511

MIC [1]: ≥ 149 µM
MIC [2]: > 149 µM
MIC [3]: ≥ 149 µM
MIC [4]: ≥ 149 µM
MIC [5]: ≥ 149 µM
MIC [6]: ≥ 149 µM
MIC [7]: ≥ 149 µM
MIC [8]: ≥ 149 µM
MIC [9]: ≥ 149 µM
MIC [10]: ≥ 149 µM
MIC [11]: ≥ 149 µM
MIC [12]: ≥ 149 µM
MIC (Pseudomonas aeruginosa 9): ≥ 149 µM
MIC [13]: ≥ 74.7 µM
MIC [14]: ≥ 149 µM
MIC [15]: ≥ 149 µM
MIC [16]: ≥ 149 µM
MIC [17]: 149 µM (≈ 182 µg/mL)
MIC [18]: ≥ 149 µM
MIC [19]: ≥ 149 µM
SMILES: CC[C@H](C)[C@H](NC(=O)[C@H](CC(N)=O)NC(=O)[C@H](CCCCN)NC(=O)[C@H](Cc1ccccc1)NC(=O)[C@H](CCCN=C(N)N)NC(=O)[C@H](Cc1c[nH]c2ccccc12)NC(=O)[C@H](C)N)C(=O)N[C@@H](CCCN=C(N)N)C(=O)N[C@@H](CCCCN)C(=O)O [AWRFKNIRK]

MIC [20]: ≥ 128 µM
MIC [21]: ≥ 512 µM
MIC [22]: ≥ 32 µM
MIC [23]: ≥ 256 µM
MIC [24]: 512 µM (≈ 839 µg/mL)
MIC [25]: 8 µM (≈ 13.1 µg/mL)
MIC [26]: 16 µM (≈ 26.2 µg/mL)
SMILES: CC[C@H](C)[C@@H]1NC(=O)[C@H](C)NC(=O)[C@@H](NC(=O)[C@H](Cc2ccccc2)NC(=O)[C@@H](NC(=O)[C@H](CCCCN)NC(=O)[C@@H]2CCCN2C(=O)[C@H](CC(C)C)NC(=O)[C@H](Cc2ccccc2)NC(=O)[C@@H](N)CCCCN)[C@@H](C)CC)CSSC[C@@H](C(=O)O)NC(=O)[C@H](CCCCN)NC(=O)[C@H](CCCCN)NC(=O)[C@H]([C@@H](C)O)NC1=O [KFLPKIFCAITKKC]

MIC [20]: 16 µM (≈ 29.2 µg/mL)
MIC [21]: ≥ 256 µM
MIC [22]: 16 µM (≈ 29.2 µg/mL)
MIC [23]: ≥ 64 µM
MIC [24]: 128 µM (≈ 234 µg/mL)
MIC [25]: 8 µM (≈ 14.6 µg/mL)
MIC [26]: 8 µM (≈ 14.6 µg/mL)
SMILES: CC[C@H](C)[C@@H]1NC(=O)[C@H](C)NC(=O)[C@@H](NC(=O)[C@H](Cc2ccccc2)NC(=O)[C@@H](NC(=O)[C@H](CCCCN)NC(=O)[C@H](Cc2c[nH]c3ccccc23)NC(=O)[C@@H]2CCCN2C(=O)[C@H](CC(C)C)NC(=O)[C@H](Cc2ccccc2)NC(=O)[C@@H](N)CCCCN)[C@@H](C)CC)CSSC[C@@H](C(=O)O)NC(=O)[C@H](CCCCN)NC(=O)[C@H](CCCCN)NC(=O)[C@H]([C@@H](C)O)NC1=O [KFLPWKIFCAITKKC]

MIC [1]: 3.06 µM (≈ 4.3 µg/mL)
MIC [2]: 12.1 µM (≈ 17 µg/mL)
MIC [3]: ≥ 49.1 µM
MIC [4]: ≥ 49.1 µM
MIC [5]: 12.1 µM (≈ 17 µg/mL)
MIC [6]: 3.06 µM (≈ 4.3 µg/mL)
MIC [7]: 12.1 µM (≈ 17 µg/mL)
MIC [8]: 6.05 µM (≈ 8.5 µg/mL)
MIC [9]: ≥ 98.2 µM
MIC [10]: ≥ 49.1 µM
MIC [11]: 12.1 µM (≈ 17 µg/mL)
MIC [12]: 24.2 µM (≈ 34 µg/mL)
MIC (Pseudomonas aeruginosa 9): 12.1 µM (≈ 17 µg/mL)
MIC [13]: 1.57 µM (≈ 2.2 µg/mL)
MIC [14]: 24.2 µM (≈ 34 µg/mL)
MIC [15]: 6.05 µM (≈ 8.5 µg/mL)
MIC [16]: 6.05 µM (≈ 8.5 µg/mL)
MIC [17]: 1.57 µM (≈ 2.2 µg/mL)
MIC [18]: 1.57 µM (≈ 2.2 µg/mL)
MIC [19]: 0.782 µM (≈ 1.1 µg/mL)
SMILES: CC[C@H](C)[C@H](NC(=O)[C@H](CCCCN)NC(=O)[C@H](Cc1c[nH]c2ccccc12)NC(=O)[C@@H](N)CCCCN)C(=O)N[C@@H](Cc1ccccc1)C(=O)N[C@@H](CCCN=C(N)N)C(=O)N[C@@H](CCCN=C(N)N)C(=O)N[C@@H](Cc1c[nH]c2ccccc12)C(=O)N[C@@H](Cc1c[nH]c2ccccc12)C(=O)O [KWKIFRRWW]

MIC [27]: 4 µM (≈ 14.1 µg/mL)
MIC [28]: 5.66 µM (≈ 19.9 µg/mL)
MIC (Escherichia coli ML-35p): 2.83 µM (≈ 9.95 µg/mL)
MIC [29]: 8 µM (≈ 28.1 µg/mL)
MIC [30]: 16 µM (≈ 56.3 µg/mL)
MIC [31]: 8 µM (≈ 28.1 µg/mL)
MIC [32]: 16 µM (≈ 56.3 µg/mL)
MIC [33]: 0.25 µM (≈ 0.879 µg/mL)
SMILES: CC[C@H](C)[C@H](NC(=O)[C@H](CCCN=C(N)N)NC(=O)[C@@H](NC(=O)[C@H](Cc1ccccc1)NC(=O)[C@@H]1CCCN1C(=O)[C@@H]1CCCN1C(=O)[C@@H]1CCCN1C(=O)[C@H](Cc1cnc[nH]1)NC(=O)[C@@H](NC(=O)[C@H](CCCN=C(N)N)NC(=O)[C@H](CCCN=C(N)N)NC(=O)[C@H](Cc1ccccc1)NC(=O)[C@@H]1CCCN1C(=O)[C@H](CC(C)C)NC(=O)[C@H](CCCN=C(N)N)NC(=O)[C@H](Cc1ccccc1)NC(=O)[C@@H](N)CCCN=C(N)N)[C@@H](C)CC)C(C)C)C(=O)N[C@@H](Cc1cnc[nH]1)C(=O)N1CCC[C@H]1C(=O)N1CCC[C@H]1C(=O)N1CCC[C@H]1C(=O)N[C@@H](Cc1ccccc1)C(=O)N[C@@H](Cc1ccc(O)cc1)C(=O)N[C@@H](CCCN=C(N)N)C(=O)N[C@@H](CCCN=C(N)N)C(=O)N[C@@H](Cc1ccccc1)C(=O)N[C@@H](CC(C)C)C(=O)O [RFRLPFRRIHPPPFVRIHPPPFYRRFL]

MIC [27]: 16 µM (≈ 39.4 µg/mL)
MIC [28]: 4 µM (≈ 9.85 µg/mL)
MIC (Escherichia coli ML-35p): 4 µM (≈ 9.85 µg/mL)
MIC [29]: 8 µM (≈ 19.7 µg/mL)
MIC [30]: ≥ 64 µM
MIC [31]: ≥ 32 µM
MIC [32]: ≥ 64 µM
MIC [33]: 4 µM (≈ 9.85 µg/mL)
SMILES: CC[C@H](C)[C@H](NC(=O)[C@H](CCCN=C(N)N)NC(=O)[C@@H](NC(=O)[C@@H]1CCCN1C(=O)[C@@H]1CCCN1C(=O)[C@H](CCCN=C(N)N)NC(=O)[C@H](CCCN=C(N)N)NC(=O)[C@H](Cc1ccccc1)NC(=O)[C@@H]1CCCN1C(=O)[C@H](CC(C)C)NC(=O)[C@H](CCCN=C(N)N)NC(=O)[C@H](Cc1ccccc1)NC(=O)[C@@H](N)CCCN=C(N)N)[C@@H](C)CC)C(=O)N[C@@H](Cc1cnc[nH]1)C(=O)N1CCC[C@H]1C(=O)N1CCC[C@H]1C(=O)N1CCC[C@H]1C(=O)N[C@@H](Cc1ccccc1)C(=O)N[C@@H](Cc1ccc(O)cc1)C(N)=O [RFRLPFRRPPIRIHPPPFY]

MIC [27]: ≥ 32 µM
MIC [28]: ≥ 32 µM
MIC (Escherichia coli ML-35p): ≥ 64 µM
MIC [29]: ≥ 64 µM
MIC [30]: ≥ 128 µM
MIC [31]: ≥ 32 µM
MIC [32]: ≥ 90.5 µM
MIC [33]: 8 µM (≈ 15.5 µg/mL)
SMILES: CC[C@H](C)[C@H](NC(=O)[C@@H](N)CCCN=C(N)N)C(=O)N[C@@H](Cc1cnc[nH]1)C(=O)N1CCC[C@H]1C(=O)N1CCC[C@H]1C(=O)N1CCC[C@H]1C(=O)N[C@@H](Cc1ccccc1)C(=O)N[C@@H](Cc1ccc(O)cc1)C(=O)N1CCC[C@H]1C(=O)N1CCC[C@H]1C(=O)N[C@@H](Cc1ccccc1)C(=O)N[C@@H](CCCN=C(N)N)C(=O)N[C@@H](CCCN=C(N)N)C(=O)N[C@@H](Cc1ccccc1)C(=O)N[C@@H](CC(C)C)C(N)=O [RIHPPPFYPPFRRFL]
